Laboratory results from PMC5571044 (Scientific Reports, 2017).

What was measured:
[1] = target: influenza A PB2long (FluA H3N2 PB2 241–741) (Influenza A virus (A/Udorn/307/1972(H3N2)), UniProt Q67296); test: biochemical; format: binding, influenza A/Udorn/307/1972(H3N2)
[2] = target: PB2long (Influenza A virus (A/Udorn/307/1972(H3N2)), UniProt Q67296); test: biochemical; format: binding, influenza A/Udorn/307/1972(H3N2)
[3] = target: PB2cap (Influenza A virus (A/Udorn/307/1972(H3N2)), UniProt Q67296); test: biochemical; format: binding, influenza A/Udorn/307/1972(H3N2)
Chain of PB2cap (Influenza A virus (A/Udorn/307/1972(H3N2)), UniProt Q67296) (Q67296 309-483 limits assumed): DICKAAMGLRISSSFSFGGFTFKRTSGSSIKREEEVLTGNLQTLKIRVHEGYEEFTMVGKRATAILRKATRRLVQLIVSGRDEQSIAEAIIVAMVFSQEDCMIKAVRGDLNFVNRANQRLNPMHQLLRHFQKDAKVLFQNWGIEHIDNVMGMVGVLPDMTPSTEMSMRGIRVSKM

[4] = system: A/H3N2/Udorn/72 PB2, PB1, PA, NP replicon (WT); test: cells; format: cell-based, influenza A/H3N2/Udorn/72 in 293 T cells; conditions: Influenza A virus, H3N2, HEK-293T, 48 h, read-out: Replicon EC50, WT

Chain of PB2long (Influenza A virus (A/Udorn/307/1972(H3N2)), UniProt Q67296) (Q67296 241-741 limits assumed): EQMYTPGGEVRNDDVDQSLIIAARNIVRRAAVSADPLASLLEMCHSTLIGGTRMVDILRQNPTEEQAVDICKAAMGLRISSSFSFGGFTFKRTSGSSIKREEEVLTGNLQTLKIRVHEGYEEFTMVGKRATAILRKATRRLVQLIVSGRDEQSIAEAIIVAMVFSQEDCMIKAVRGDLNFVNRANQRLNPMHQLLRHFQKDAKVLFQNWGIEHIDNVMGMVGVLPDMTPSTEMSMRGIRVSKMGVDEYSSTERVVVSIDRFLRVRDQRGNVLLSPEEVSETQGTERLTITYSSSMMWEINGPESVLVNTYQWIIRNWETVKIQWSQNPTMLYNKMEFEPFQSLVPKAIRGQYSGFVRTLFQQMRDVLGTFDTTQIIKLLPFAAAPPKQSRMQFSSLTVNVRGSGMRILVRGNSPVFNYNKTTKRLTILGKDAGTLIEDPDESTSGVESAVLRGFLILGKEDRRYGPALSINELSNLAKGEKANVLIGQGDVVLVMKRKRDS
Chain of influenza A PB2long (FluA H3N2 PB2 241–741) (Influenza A virus (A/Udorn/307/1972(H3N2)), UniProt Q67296) (Q67296 241-741 limits assumed): as above

O=C(O)[C@H]1C2CCC(CC2)[C@@H]1Nc1nc(-c2c[nH]c3ncc(F)cc23)ncc1F [VX-787]
Kd [1]: 0.67 nM
Kd [2]: 0.0067 nM
kon ([2]; read-out: ka (association rate), PB2long): 2.9e+06 M⁻¹ s⁻¹
koff ([2]; read-out: kd (dissociation rate), PB2long): 2e-05 s⁻¹
Kd [3]: 78 nM
kon ([3]; read-out: ka (association rate), PB2cap): 59000 M⁻¹ s⁻¹
koff ([3]; read-out: kd (dissociation rate), PB2cap): 0.0046 s⁻¹
EC50 [4]: 3.5 nM
